Source: US6369080B2, “Selective factor Xa inhibitors” (COR Therapeutics, Inc., priority 1996, dated 2002)
pIC50: −log10 of the molar value.

Molecular target: T1, thrombin (Homo sapiens, UniProt P00734)
T1 construct: converts the zymogen prothrombin into the active procoagulant thrombin
Experiment: Thrombin amidolytic assay (chromogenic substrate Chromozym TH)
Type: biochemical
Conditions: room temperature, pH 7.5, 5 minutes preincubation
Method: The compounds of the present invention are first dissolved in a buffer to give solutions containing concentrations such that assay concentrations range from 0-100 μM. In assays for thrombin, prothrombinase and factor Xa, a synthetic chromogenic substrate would be added to a solution containing a test compound and the enzyme of interest and the residual catalytic activity of that enzyme would then be determined spectrophotometrically.
The IC50 of a compound is determined from the substrate turnover. The IC50 is the concentration of test compound giving 50% inhibition of the substrate turnover.
Factor Xa and thrombin assays are performed at room temperature, in 0.02 M Tris HCl buffer, pH 7.5, containing 0.15 M NaCl. The rates of hydrolysis of the paranitroanilide substrate S-2765 (Chromogenix) for factor Xa, and the substrate Chromozym TH (Boehringer Mannheim) for thrombin following preincubation of the enzyme with the test compound for 5 minutes at room temperature are determined using a Softmax 96-well plate reader (Molecular Devices), monitored at 405 nm to measure the time dependent appearance of p-nitroanilide.

With N=C(N)NCCC[C@H](NC(=O)Cn1cccc(NS(=O)(=O)Cc2ccccc2)c1=O)C(=O)c1nccs1 [Example 9] as the compound, how does the pIC50 read?
The pIC50 was 8.10.
